Measurements published in article doi:10.1101/2020.01.23.916502v1 (biorxiv, 2020).

Columns and labels:
Test in all cases: NanoBRET tracer displacement in live HEK293T cells
Format in all cases: cell-based
PNCK = PNCK (Homo sapiens, UniProt Q6P2M8)
MAPK9 = MAPK9 (Homo sapiens, UniProt P45984)
JAK1 = JAK1 (Homo sapiens, UniProt P23458)
DDR1 = DDR1 (Homo sapiens, UniProt Q08345)
PIK3CA = PIK3CA (Homo sapiens, UniProt P42336)

Measured: IC50

JAK1, sequence (P23458 whole entry): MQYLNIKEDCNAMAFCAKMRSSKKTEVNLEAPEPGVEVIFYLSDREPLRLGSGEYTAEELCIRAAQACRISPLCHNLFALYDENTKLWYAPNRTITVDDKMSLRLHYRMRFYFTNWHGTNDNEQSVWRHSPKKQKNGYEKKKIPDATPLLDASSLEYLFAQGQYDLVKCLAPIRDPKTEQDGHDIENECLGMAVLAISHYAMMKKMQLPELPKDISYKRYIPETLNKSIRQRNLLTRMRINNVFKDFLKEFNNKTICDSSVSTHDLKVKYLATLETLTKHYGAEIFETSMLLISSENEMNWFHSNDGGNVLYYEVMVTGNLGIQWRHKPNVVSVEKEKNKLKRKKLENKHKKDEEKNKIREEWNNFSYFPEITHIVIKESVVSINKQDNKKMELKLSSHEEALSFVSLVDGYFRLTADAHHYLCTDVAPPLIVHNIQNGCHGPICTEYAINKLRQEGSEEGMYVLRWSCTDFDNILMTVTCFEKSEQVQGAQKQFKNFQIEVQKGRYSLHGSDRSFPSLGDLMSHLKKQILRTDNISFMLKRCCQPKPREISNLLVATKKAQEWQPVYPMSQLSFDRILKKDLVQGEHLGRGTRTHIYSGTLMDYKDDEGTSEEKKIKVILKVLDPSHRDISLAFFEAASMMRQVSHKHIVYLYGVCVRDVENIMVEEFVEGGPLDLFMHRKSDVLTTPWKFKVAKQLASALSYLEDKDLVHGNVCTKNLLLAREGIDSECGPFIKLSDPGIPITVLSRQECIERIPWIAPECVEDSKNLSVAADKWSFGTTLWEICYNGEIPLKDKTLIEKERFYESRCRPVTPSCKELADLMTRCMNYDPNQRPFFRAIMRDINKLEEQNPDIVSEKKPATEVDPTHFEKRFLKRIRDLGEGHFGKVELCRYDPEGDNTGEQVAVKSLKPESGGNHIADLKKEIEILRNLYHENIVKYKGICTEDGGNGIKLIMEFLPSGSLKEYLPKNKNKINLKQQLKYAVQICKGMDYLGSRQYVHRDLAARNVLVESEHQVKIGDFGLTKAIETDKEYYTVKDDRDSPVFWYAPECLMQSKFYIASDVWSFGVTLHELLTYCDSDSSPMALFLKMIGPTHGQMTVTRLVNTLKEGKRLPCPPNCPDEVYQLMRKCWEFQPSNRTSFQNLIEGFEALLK
MAPK9, sequence (P45984 whole entry): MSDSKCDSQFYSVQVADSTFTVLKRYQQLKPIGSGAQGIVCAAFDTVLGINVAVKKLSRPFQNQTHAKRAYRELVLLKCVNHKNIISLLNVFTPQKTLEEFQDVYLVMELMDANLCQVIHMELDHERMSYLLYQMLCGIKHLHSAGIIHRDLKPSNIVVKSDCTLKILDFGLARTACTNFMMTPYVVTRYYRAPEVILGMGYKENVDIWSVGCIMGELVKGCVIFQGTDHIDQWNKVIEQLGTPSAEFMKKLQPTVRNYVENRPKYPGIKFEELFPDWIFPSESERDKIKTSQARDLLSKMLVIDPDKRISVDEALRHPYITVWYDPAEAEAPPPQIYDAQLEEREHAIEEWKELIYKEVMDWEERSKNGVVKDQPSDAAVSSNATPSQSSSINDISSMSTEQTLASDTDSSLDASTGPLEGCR
DDR1, sequence (Q08345 19-913): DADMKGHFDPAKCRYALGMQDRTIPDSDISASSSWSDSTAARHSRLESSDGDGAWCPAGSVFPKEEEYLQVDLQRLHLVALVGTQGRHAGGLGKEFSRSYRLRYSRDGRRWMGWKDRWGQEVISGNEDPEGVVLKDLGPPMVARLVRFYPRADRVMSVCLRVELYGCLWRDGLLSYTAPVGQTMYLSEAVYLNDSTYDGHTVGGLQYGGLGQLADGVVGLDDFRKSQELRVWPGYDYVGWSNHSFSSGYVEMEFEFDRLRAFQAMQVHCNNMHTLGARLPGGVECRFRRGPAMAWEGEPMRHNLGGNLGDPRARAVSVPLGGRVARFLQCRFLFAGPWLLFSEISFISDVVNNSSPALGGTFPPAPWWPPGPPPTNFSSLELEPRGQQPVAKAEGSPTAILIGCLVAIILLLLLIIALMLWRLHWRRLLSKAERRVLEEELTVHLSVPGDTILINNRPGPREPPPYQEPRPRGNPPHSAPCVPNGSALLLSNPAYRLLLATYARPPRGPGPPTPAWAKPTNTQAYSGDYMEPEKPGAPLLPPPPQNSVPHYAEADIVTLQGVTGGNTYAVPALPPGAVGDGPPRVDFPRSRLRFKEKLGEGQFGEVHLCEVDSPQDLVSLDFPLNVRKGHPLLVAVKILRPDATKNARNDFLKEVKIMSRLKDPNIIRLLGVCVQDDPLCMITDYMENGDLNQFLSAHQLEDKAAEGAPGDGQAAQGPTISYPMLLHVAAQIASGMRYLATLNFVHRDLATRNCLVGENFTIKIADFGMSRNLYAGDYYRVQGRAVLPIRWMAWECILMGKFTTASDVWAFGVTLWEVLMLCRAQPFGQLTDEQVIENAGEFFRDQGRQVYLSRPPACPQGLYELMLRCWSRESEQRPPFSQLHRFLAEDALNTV
PNCK, sequence (Q6P2M8 whole entry): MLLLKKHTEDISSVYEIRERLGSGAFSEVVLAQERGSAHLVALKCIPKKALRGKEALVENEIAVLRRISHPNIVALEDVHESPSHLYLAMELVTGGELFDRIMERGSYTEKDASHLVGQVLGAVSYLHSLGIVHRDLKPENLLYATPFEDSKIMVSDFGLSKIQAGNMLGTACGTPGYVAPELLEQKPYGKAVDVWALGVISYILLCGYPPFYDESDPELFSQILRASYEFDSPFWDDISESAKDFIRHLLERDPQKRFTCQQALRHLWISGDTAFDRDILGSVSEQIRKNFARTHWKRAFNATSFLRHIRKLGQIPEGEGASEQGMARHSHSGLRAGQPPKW
PIK3CA, sequence (P42336 whole entry): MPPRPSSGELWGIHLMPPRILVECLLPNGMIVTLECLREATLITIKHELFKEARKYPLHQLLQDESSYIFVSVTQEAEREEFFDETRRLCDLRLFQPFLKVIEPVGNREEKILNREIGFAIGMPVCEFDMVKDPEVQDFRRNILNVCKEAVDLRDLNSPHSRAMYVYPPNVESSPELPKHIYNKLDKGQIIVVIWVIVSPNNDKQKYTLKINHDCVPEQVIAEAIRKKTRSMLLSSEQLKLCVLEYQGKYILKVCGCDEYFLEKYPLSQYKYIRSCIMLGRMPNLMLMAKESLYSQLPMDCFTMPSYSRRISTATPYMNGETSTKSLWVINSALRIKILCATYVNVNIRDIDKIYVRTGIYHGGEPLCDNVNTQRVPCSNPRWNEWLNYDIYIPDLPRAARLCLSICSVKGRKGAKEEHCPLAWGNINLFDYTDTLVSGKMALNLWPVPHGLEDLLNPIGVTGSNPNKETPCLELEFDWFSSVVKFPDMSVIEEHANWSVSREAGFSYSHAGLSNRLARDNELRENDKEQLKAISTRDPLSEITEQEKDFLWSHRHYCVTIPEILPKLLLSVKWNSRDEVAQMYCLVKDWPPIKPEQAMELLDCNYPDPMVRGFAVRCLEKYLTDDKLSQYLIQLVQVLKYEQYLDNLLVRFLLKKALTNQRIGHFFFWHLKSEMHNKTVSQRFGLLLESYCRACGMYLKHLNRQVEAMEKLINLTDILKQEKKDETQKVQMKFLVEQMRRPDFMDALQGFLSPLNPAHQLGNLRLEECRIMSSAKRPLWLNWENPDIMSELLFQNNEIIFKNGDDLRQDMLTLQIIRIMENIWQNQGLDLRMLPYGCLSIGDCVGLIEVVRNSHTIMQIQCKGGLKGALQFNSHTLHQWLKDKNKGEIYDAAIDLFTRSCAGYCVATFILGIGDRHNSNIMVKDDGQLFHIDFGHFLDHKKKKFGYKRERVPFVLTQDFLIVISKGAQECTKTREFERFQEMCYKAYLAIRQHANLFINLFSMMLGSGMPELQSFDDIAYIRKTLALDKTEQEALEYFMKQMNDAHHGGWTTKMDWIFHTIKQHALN

Cc1ccc2c(c1)n(CC(N)=O)c(=O)n2-c1cc(-c2cc(Cl)ccc2F)ncc1C [compound 16, THAI14]
> 20 µM: all assays above

Cc1cnc(-c2cc(Cl)ccc2F)cc1-n1c(=O)n(CC(N)=O)c2ccccc21 [compound 15, THAI11]
> 20 µM: all assays above
